This note sets out measurements from publication PMC6901289 (Journal of medicinal chemistry, 2019).

Entries after “also recorded” stand apart in the source; their conditions may differ.

Data set [1] concerns α-tubulin acetylation in HCT116 cells. Nature of the data set: α-tubulin acetylation by immunofluorescence. It is filed as cell-based, human. Conditions: six hours.
The test system of data set [2] is p53 acetylation in HCT116 cells. Briefly: p53 K382 acetylation by western blot. Conditions: for acetyl p53 (K382) levels: HCT116, 25 μM inhibitor with 400 nM TSA, 6 hours; for dose dependence of acetyl p53 levels: HCT116, 10–50 μM inhibitor with Trichostatin A. In general terms: Immunoblotting shows a protein as a band on a membrane.
The next data set relates to HCT116 xenograft. Briefly: HCT116 xenograft mice study. The settings on record: 25 mg/kg intraperitoneal, every day. The format is in vivo, NSG mice.
Data set [3] deals with T1, SIRT2 (Homo sapiens, UniProt Q8IXJ6).
T1 sequence (Q8IXJ6 1-389): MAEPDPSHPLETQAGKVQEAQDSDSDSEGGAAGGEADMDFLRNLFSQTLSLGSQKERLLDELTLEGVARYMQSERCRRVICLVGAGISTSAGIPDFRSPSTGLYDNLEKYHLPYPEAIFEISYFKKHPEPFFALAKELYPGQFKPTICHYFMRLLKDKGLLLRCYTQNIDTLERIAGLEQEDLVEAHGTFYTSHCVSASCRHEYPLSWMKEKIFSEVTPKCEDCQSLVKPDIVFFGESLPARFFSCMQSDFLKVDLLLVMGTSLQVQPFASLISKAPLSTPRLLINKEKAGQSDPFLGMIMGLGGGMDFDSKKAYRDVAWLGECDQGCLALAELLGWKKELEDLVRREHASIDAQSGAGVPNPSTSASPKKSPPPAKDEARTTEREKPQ
Briefly: LC-MS detection of covalent intermediate with NAD+ in the presence of SIRT2. It is filed as biochemical. Conditions: incubated with an excess of SIRT2 and NAD+.

Data set [4] can be described thus: Mouse body weight in xenograft study. The settings on record: treatment groups of xenograft study, intraperitoneal. The format is in vivo, NSG mice.
A further data set deals with HCT116 cells. Nature of the data set: Soft agar colony formation assay. It is filed as cell-based, human. Conditions: at a concentration of 10 μM and greater.
In data set [5] the target is T1, SIRT2. Briefly: Enzyme IC50 assay, acetyl H3K9 peptide, liquid chromatography. The format is biochemical. The settings on record: relative selectivity for SIRT2 over SIRT1, Table 1.
The target in a further data set is T2, SIRT1 (Homo sapiens, UniProt Q96EB6).
T2 sequence (Q96EB6 1-747): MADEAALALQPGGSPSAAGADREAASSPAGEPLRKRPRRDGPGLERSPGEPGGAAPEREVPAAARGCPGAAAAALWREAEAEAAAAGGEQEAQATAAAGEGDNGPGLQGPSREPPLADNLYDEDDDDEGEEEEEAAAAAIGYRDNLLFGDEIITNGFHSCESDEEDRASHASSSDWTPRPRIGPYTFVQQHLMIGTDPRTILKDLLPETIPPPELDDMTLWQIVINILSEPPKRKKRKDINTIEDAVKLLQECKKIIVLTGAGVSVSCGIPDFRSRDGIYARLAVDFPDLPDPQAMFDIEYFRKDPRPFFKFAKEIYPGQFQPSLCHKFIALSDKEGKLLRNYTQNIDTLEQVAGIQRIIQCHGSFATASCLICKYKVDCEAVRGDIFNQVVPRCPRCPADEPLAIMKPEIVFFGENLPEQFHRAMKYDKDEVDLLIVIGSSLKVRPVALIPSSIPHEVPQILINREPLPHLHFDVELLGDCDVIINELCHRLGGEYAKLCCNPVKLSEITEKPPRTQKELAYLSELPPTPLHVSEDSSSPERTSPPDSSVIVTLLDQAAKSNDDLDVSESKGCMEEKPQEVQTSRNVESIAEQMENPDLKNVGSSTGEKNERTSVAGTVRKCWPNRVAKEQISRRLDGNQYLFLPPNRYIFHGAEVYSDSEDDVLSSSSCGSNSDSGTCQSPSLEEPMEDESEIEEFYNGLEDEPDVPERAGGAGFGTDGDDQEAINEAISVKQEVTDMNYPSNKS
The description is as above. The settings on record: in vitro. It is filed as biochemical.

With `CCCCCNC(=S)NCCCC[C@H](NC(=O)OCc1ccccc1)C(=O)Nc1cccc(O)c1` [Compound C5, Benzyl (S)-(1-((3-hydroxyphenyl)amino)-1-oxo-6-(3-pentylthioureido)hexan-2-yl)carbamate], the α-tubulin acetylation result in data set [1] (HCT116, 25 μM inhibitor) is recorded as “slightly increased α-tubulin acetylation”; in data set [1] (HCT116, 50 μM inhibitor), “increased α-tubulin acetylation; also recorded: more robustly increased acetylation”. The “acetyl p53 (K382) levels” value in data set [2] is listed as “moderately increased the acetylation of p53; also recorded: moderately increased acetyl p53 levels”.
Turning to `CCCCCCCCNC(=S)NCCCC[C@H](NC(=O)OCc1ccccc1)C(=O)Nc1ccccc1` [AF8, benzyl (S)-(6-(3-octylthioureido)-1-oxo-1-(phenylamino)hexan-2-yl)carbamate], the “tumor growth by volume and weight” value in the data set with HCT116 xenograft is “slightly decreased tumor growth by volume and weight but did not result in a statistically significant difference”. Moreover, on SIRT2 [3], the “covalent inhibitor-ADP-ribose intermediate by LC-MS” value is “detected”. Besides, the α-tubulin acetylation entry in data set [1] (HCT116, 25 μM inhibitor) is “extensive α-tubulin hyperacetylation; also recorded: increased α-tubulin acetylation”. Further, the α-tubulin acetylation result in data set [1] (HCT116, 50 μM inhibitor) is reported as “extensive α-tubulin hyperacetylation; also recorded: also increased α-tubulin acetylation”. Also, the “mouse body weight loss” value in data set [4] is “No significant weight loss”. Besides, in data set [2], the “acetyl p53 (K382) levels” value is “did not increase the levels of acetyl p53; also recorded: did not noticeably increase p53 acetylation” and the “dose dependence of acetyl p53 levels” value is given as “did not increase acetyl p53 levels in a dose dependent manner”. In the data set with HCT116 cells, the “growth of HCT116 cells in soft agar” value is given as “completely inhibited”.
With `CCCCCCCCCCNC(=S)NCCCC[C@H](NC(=O)OCc1ccccc1)C(=O)Nc1cccc(O)c1` [Compound C10, Benzyl (S)-(6-(3-decylthioureido)-1-((3-hydroxyphenyl)amino)-1-oxohexan-2-yl)carbamate], in data set [1] (HCT116, 25 μM inhibitor), the α-tubulin acetylation result was “more strongly increased α-tubulin acetylation; also recorded: increased α-tubulin acetylation”. In addition, in data set [1] (HCT116, 50 μM inhibitor), the α-tubulin acetylation entry is recorded as “increased α-tubulin acetylation”. In addition, in data set [2], the “acetyl p53 (K382) levels” value was “moderately increased the acetylation of p53; also recorded: moderately increased acetyl p53 levels” and the “dose dependence of acetyl p53 levels” value is recorded as “dose dependent increase in acetyl p53 levels; also recorded: dose dependent increase of acetyl p53”.
As for `CCCCCCCCCCCCNC(=S)NCCCC[C@H](NC(=O)OCc1ccccc1)C(=O)Nc1ccccc1` [AF12, Benzyl (S)-(6-(3-dodecylthioureido)-1-oxo-1-(phenylamino)hexan-2-yl)carbamate], the “SIRT2/SIRT1 Selectivity” value at SIRT2 [5] was over 1000. The “inhibition of SIRT1 deacetylase activity (in words)” value at SIRT1 is “no inhibition”.
As for `CCCCCCCCCCNC(=S)NCCCC[C@H](NC(=O)OCc1ccccc1)C(=O)Nc1ccccc1` [AF10, Benzyl (S)-(6-(3-decylthioureido)-1-oxo-1-(phenylamino)hexan-2-yl)carbamate], the “SIRT2/SIRT1 Selectivity” value at SIRT2 [5] is listed as over 1000. The α-tubulin acetylation result in data set [1] (HCT116, 25 μM inhibitor) is “extensive α-tubulin hyperacetylation; also recorded: increased α-tubulin acetylation”. The α-tubulin acetylation result in data set [1] (HCT116, 50 μM inhibitor) is “extensive α-tubulin hyperacetylation; also recorded: also increased α-tubulin acetylation”. The “mouse body weight loss” value in data set [4] is given as “No significant weight loss”. Besides, in data set [2], the “acetyl p53 (K382) levels” value was “did not increase the levels of acetyl p53; also recorded: did not noticeably increase p53 acetylation” and the “dose dependence of acetyl p53 levels” value is given as “very slight increase in acetyl p53”. Further, in the data set with HCT116 cells, the “growth of HCT116 cells in soft agar” value is on record as “completely inhibited”. Further, the “inhibition of SIRT1 deacetylase activity (in words)” value on SIRT1 is on record as “no inhibition”.
`CCCNC(=S)NCCCC[C@H](NC(=O)OCc1ccccc1)C(=O)Nc1cccc(O)c1` [Compound C3, Benzyl (S)-(1-((3-hydroxyphenyl)amino)-1-oxo-6-(3-propylthioureido)hexan-2-yl)carbamate]: the α-tubulin acetylation result in data set [1] (HCT116, 25 μM inhibitor) is reported as “did not increase the acetylation of α-tubulin”; in data set [1] (HCT116, 50 μM inhibitor), “did not increase the acetylation of α-tubulin”. Further, the “acetyl p53 (K382) levels” value in data set [2] is recorded as “did not increase the acetylation of p53”.
For the molecule `CCCCCCCCCCCCCC(=S)NCCCC[C@H](NC(=O)OCc1ccccc1)C(=O)Nc1ccccc1` [TM, reference compound], the α-tubulin acetylation entry in data set [1] (HCT116, 25 μM inhibitor) is given as “increased α-tubulin acetylation”; in data set [1] (HCT116, 50 μM inhibitor), “also increased α-tubulin acetylation”. Also, the “acetyl p53 (K382) levels” value in data set [2] is “did not increase the levels of acetyl p53”.
